The target in this test is T1, F508delCFTR cell surface expression in CFBE41o-F508delCFTR-HRP cells (Homo sapiens, UniProt P13569, DEL508-508).
T1 construct: fused on or other part: Horseradish peroxidase (HRP) reporter inserted in the fourth exofacial (extracellular) loop of CFTR; expression is doxycycline-inducible
The test can be described thus: Cell Surface Expression-Horse Radish Peroxidase (CSE-HRP) Assay. It counts as cell-based. To be noted: for EC50: CFBE41o-F508delCFTR-HRP cells, 18-24 hours at 33° C., 8-point curve, highest concentration 20 μM; for Maximum % activity (%): maximum at any tested concentration, normalized to on-plate positive control (3 μM). The method, boiled down: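 Correctors incubated 18-24 h at 33 °C on doxycycline-induced (0.5 μg/mL, 72 h) CFBE41o-F508delCFTR-HRP cells, 3-fold series from 20 μM. After DPBS washes, luminol luminescence read; activity expressed relative to DMSO and a 3 μM positive control, EC50 fitted from triplicate plates.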

T1 sequence (P13569 with tags, fused parts or gaps DEL508-508 limits assumed): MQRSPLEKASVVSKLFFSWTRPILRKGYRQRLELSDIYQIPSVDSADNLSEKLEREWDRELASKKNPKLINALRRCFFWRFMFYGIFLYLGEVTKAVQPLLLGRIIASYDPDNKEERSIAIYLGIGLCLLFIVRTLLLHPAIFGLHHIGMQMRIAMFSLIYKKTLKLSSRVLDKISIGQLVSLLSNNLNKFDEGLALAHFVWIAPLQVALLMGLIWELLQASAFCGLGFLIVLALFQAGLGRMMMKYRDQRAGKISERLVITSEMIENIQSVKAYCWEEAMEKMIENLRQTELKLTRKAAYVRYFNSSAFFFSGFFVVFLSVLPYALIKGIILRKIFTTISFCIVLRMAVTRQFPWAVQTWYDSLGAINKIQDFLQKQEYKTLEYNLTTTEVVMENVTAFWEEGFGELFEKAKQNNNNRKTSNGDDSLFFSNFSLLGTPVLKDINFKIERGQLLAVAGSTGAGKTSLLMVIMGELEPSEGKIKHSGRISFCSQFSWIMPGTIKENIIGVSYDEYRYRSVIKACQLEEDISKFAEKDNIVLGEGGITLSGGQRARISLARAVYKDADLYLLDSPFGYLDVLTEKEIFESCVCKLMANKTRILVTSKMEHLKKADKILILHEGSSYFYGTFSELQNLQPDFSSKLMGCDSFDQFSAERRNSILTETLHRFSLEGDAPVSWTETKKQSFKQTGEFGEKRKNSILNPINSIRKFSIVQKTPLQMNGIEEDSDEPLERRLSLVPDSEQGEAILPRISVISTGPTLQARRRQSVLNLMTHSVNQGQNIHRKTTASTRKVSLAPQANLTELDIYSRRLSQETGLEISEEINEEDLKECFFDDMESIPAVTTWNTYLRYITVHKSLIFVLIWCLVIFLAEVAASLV
T1 sequence (P13569 919-1480 limits assumed, stated change not applied): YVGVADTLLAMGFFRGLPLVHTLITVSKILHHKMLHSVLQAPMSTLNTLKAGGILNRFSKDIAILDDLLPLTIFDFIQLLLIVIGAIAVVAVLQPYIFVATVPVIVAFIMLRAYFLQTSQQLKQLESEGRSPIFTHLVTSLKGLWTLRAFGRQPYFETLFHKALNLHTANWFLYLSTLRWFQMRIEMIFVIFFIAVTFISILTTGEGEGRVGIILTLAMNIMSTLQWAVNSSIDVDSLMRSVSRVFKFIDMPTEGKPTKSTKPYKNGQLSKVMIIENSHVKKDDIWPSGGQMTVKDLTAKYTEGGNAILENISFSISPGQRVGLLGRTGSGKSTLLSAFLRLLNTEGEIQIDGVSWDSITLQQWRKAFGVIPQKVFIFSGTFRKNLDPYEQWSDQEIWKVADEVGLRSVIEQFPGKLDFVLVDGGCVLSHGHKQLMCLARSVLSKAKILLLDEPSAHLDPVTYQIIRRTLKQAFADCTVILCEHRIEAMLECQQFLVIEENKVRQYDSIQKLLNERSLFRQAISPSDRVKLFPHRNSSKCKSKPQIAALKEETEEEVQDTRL

By EC50 is commonly meant the concentration giving half of the maximal effect. Take `CCOC(=O)[C@H]1CC[C@@H]([C@H]2C[C@@H](NC(=O)[C@@]3(C)COc4cc5c(cc43)OC(F)(F)O5)c3ccc(OC(F)(F)F)cc3O2)CC1` [Example 157, ethyl cis-4-[(2R,4R)-4-{[(7R)-2,2-difluoro-7-methyl-6,7-dihydro-2H-furo[2,3-f][1,3]benzodioxole-7-carbonyl]amino}-7-(trifluoromethoxy)-3,4-dihydro-2H-1-benzopyran-2-yl]cyclohexane-1-carboxylate]: the EC50 was determined as 168 nM and the “Maximum % activity (%)” value is listed as 117%.
The like results for `CC(C)(C)OC(=O)N[C@H]1CC[C@H]([C@@H]2C[C@H](NC(=O)[C@@]3(C)COc4cc5c(cc43)OC(F)(F)O5)c3ccc(OC(F)F)cc3O2)CC1` [Example 198, tert-butyl {trans-4-[(2S,4S)-7-(difluoromethoxy)-4-{[(7R)-2,2-difluoro-7-methyl-6,7-dihydro-2H-furo[2,3-f][1,3]benzodioxole-7-carbonyl]amino}-3,4-dihydro-2H-1-benzopyran-2-yl]cyclohexyl}carbamate] were, in that order, 1070 nM and 106%.
For `COc1ccc2c(c1)O[C@@H](c1ccc(C(=O)NCCS(C)(=O)=O)cn1)C[C@H]2NC(=O)[C@@]1(C)COc2cc3c(cc21)OC(F)(F)O3` [Example 230, 6-[(2R,4R)-4-{[(7R)-2,2-difluoro-7-methyl-6,7-dihydro-2H-furo[2,3-f][1,3]benzodioxole-7-carbonyl]amino}-7-methoxy-3,4-dihydro-2H-1-benzopyran-2-yl]-N-[2-(methanesulfonyl)ethyl]pyridine-3-carboxamide], the EC50 amounted to 60 nM and the “Maximum % activity (%)” value was found to be 115%.
For `CC1(C)OC[C@@H](Cn2c3c(c4cc(NC(=O)[C@@]5(C)COc6cc7c(cc65)OC(F)(F)O7)c(F)cc42)C(C)(C)OCC3(C)C)O1` [Example 207, (7R)—N-(5-{[(4R)-2,2-dimethyl-1,3-dioxolan-4-yl]methyl}-7-fluoro-1,1,4,4-tetramethyl-1,3,4,5-tetrahydropyrano[4,3-b]indol-8-yl)-2,2-difluoro-7-methyl-6,7-dihydro-2H-furo[2,3-f][1,3]benzodioxole-7-carboxamide], in that order: 350 nM and 69%.
For `Cc1ccc(NC(=O)[C@@]2(C)COc3cc4c(cc32)OC(F)(F)O4)nc1-c1ccc(C(=O)NS(C)(=O)=O)cc1` [Example 142, (7R)-2,2-difluoro-N-(6-{4-[(methanesulfonyl)carbamoyl]phenyl}-5-methylpyridin-2-yl)-7-methyl-6,7-dihydro-2H-furo[2,3-f][1,3]benzodioxole-7-carboxamide], in that order: 2500 nM and 180%.
For `CC1(C(=O)Nc2nc(-c3ccc(C(=O)O)cc3)cs2)COc2cc3c(cc21)OC(F)(F)O3` (stereo not shown) [Example 68, 4-{2-[(2,2-difluoro-7-methyl-6,7-dihydro-2H-furo[2,3-f][1,3]benzodioxole-7-carbonyl)amino]-1,3-thiazol-4-yl}benzoic acid], in that order: 4470 nM and 44%.
As to `COc1ccc2c(c1)O[C@@H](c1ccc(C(=O)O)cc1)C[C@H]2NC(=O)[C@@]1(C)CCc2cc3c(cc21)OC(F)(F)O3` (single isomer, unassigned) [Example 50], the EC50 came out at 1670 nM and the “Maximum % activity (%)” value is on record as 75%.
In the case of `COc1ccc2c(c1)O[C@@H](c1ccc(C(=O)NC(C)CO)cn1)C[C@H]2NC(=O)[C@@]1(C)COc2cc3c(cc21)OC(F)(F)O3` (stereo partly drawn) [Example 242, 6-[(2R,4R)-4-{[(7R)-2,2-difluoro-7-methyl-6,7-dihydro-2H-furo[2,3-f][1,3]benzodioxole-7-carbonyl]amino}-7-methoxy-3,4-dihydro-2H-1-benzopyran-2-yl]-N-(1-hydroxypropan-2-yl)pyridine-3-carboxamide], the response was half-maximal at 40 nM (EC50) and the “Maximum % activity (%)” value is on record as 116%.
For `O=C(O)c1ccc([C@@H]2C[C@H](NC(=O)C3(c4ccc5c(c4)OC(F)(F)O5)CC3)c3ccccc3N2)cc1` (single isomer, unassigned) [Example 48], in that order: 2770 nM and 27%.
For the compound `COC(=O)c1ccc(-c2cccc(NC(=O)C3(C)COc4cc5c(cc43)OC(F)(F)O5)c2)cc1` (stereo not shown) [Example 66, methyl 3′-[(2,2-difluoro-7-methyl-6,7-dihydro-2H-furo[2,3-f][1,3]benzodioxole-7-carbonyl)amino][1,1′-biphenyl]-4-carboxylate], the midpoint of the response, the EC50, lay at 4110 nM and the “Maximum % activity (%)” value was 160%.
For `COc1ccc2c(c1)O[C@@H](c1ccc(C(=O)NCC(C)O)cn1)C[C@H]2NC(=O)[C@@]1(C)COc2cc3c(cc21)OC(F)(F)O3` (stereo partly drawn) [Example 241, 6-[(2R,4R)-4-{[(7R)-2,2-difluoro-7-methyl-6,7-dihydro-2H-furo[2,3-f][1,3]benzodioxole-7-carbonyl]amino}-7-methoxy-3,4-dihydro-2H-1-benzopyran-2-yl]-N-(2-hydroxypropyl)pyridine-3-carboxamide], in that order: 40 nM and 110%.
The like results for `COc1ccc2c(c1)O[C@@H](c1cccc(C(=O)O)c1)C[C@H]2NC(=O)[C@]1(C)COc2cc3c(cc21)OC(F)(F)O3` [Example 13, 3-[(2R,4R)-4-{[(7S)-2,2-difluoro-7-methyl-6,7-dihydro-2H-furo[2,3-f][1,3]benzodioxole-7-carbonyl]amino}-7-methoxy-3,4-dihydro-2H-1-benzopyran-2-yl]benzoic acid] were, in that order, 8810 nM and 72%.
On to `CCOC(=O)C1(CN)CCC([C@H]2C[C@@H](NC(=O)[C@@]3(C)COc4cc5c(cc43)OC(F)(F)O5)c3ccc(OC(F)(F)F)cc3O2)CC1` (stereo partly drawn) [Example 287, ethyl 1-(aminomethyl)-4-[(2R,4R)-4-{[(7R)-2,2-difluoro-7-methyl-6,7-dihydro-2H-furo[2,3-f][1,3]benzodioxole-7-carbonyl]amino}-7-(trifluoromethoxy)-3,4-dihydro-2H-1-benzopyran-2-yl]cyclohexane-1-carboxylate], for which the EC50 worked out at 640 nM and the “Maximum % activity (%)” value is given as 199%.
The like results for `C[C@]1(C(=O)Nc2cccc(N3CC[C@@H](S(C)(=O)=O)C3)n2)COc2cc3c(cc21)OC(F)(F)O3` [Example 111, (7R)-2,2-difluoro-N-{6-[(3R)-3-(methanesulfonyl)pyrrolidin-1-yl]pyridin-2-yl}-7-methyl-6,7-dihydro-2H-furo[2,3-f][1,3]benzodioxole-7-carboxamide] were, in that order, 540 nM and 91%.
For `COC(=O)c1ccc(-c2cccc(NC(=O)[C@@]3(C)COc4cc5c(cc43)OC(F)(F)O5)n2)cc1` [Example 79, methyl 4-(6-{[(7R)-2,2-difluoro-7-methyl-6,7-dihydro-2H-furo[2,3-f][1,3]benzodioxole-7-carbonyl]amino}pyridin-2-yl)benzoate], in that order: 1180 nM and 151%.
The like results for `COCC(CO)NC(=O)c1ccc([C@H]2C[C@@H](NC(=O)[C@@]3(C)COc4cc5c(cc43)OC(F)(F)O5)c3ccc(OC)cc3O2)nc1` (stereo partly drawn) [Example 246, 6-[(2R,4R)-4-{[(7R)-2,2-difluoro-7-methyl-6,7-dihydro-2H-furo[2,3-f][1,3]benzodioxole-7-carbonyl]amino}-7-methoxy-3,4-dihydro-2H-1-benzopyran-2-yl]-N-(1-hydroxy-3-methoxypropan-2-yl)pyridine-3-carboxamide] were, in that order, 80 nM and 125%.
Consider `CC(C)(CO)[C@H]1Cc2cc(NC(=O)[C@@]3(C)COc4cc5c(cc43)OC(F)(F)O5)c(F)cc2N1C[C@@H](O)CO` (single isomer, unassigned) [Example 140], for which the concentration giving a half-maximal response (EC50) came out at 1300 nM and the “Maximum % activity (%)” value is on record as 49%.
For `C[C@]1(C(=O)N[C@H]2C[C@@H](C3CCN(C(=O)OCc4ccccc4)CC3)Oc3cc(OC(F)(F)F)ccc32)COc2cc3c(cc21)OC(F)(F)O3` [Example 225, benzyl 4-[(2S,4S)-4-{[(7R)-2,2-difluoro-7-methyl-6,7-dihydro-2H-furo[2,3-f][1,3]benzodioxole-7-carbonyl]amino}-7-(trifluoromethoxy)-3,4-dihydro-2H-1-benzopyran-2-yl]piperidine-1-carboxylate], it took 4020 nM to reach a half-maximal effect (EC50) and the “Maximum % activity (%)” value is reported as 54%.
For `C[C@]1(C(=O)Nc2cc3cc(C4(COCc5ccccc5)CC4)n(C[C@@H](O)CO)c3cc2F)COc2cc3c(cc21)OC(F)(F)O3` [Example 203, (7R)—N-(2-{1-[(benzyloxy)methyl]cyclopropyl}-1-[(2R)-2,3-dihydroxypropyl]-6-fluoro-1H-indol-5-yl)-2,2-difluoro-7-methyl-6,7-dihydro-2H-furo[2,3-f][1,3]benzodioxole-7-carboxamide], in that order: 660 nM and 125%.
For `C[C@]1(C(=O)Nc2cc3cc(C4(COCc5ccccc5)CC4)n(C[C@@H](O)COCc4ccccc4)c3cc2F)COc2cc3c(cc21)OC(F)(F)O3` [Example 286, (7R)—N-(1-[(2R)-3-(benzyloxy)-2-hydroxypropyl]-2-{1-[(benzyloxy)methyl]cyclopropyl}-6-fluoro-1H-indol-5-yl)-2,2-difluoro-7-methyl-6,7-dihydro-2H-furo[2,3-f][1,3]benzodioxole-7-carboxamide], in that order: 210 nM and 120%.

(Values after US9840513B2 (AbbVie S.à.r.l., priority 2015, dated 2017).)
